For assay [1], the target named is SHP-2 enzyme (Met1-Leu525) (Homo sapiens (Human), UniProt Q06124). Briefly: SHP2 inhibition enzymatic assay. Particulars: 0.5 nM SHP-2 activated by 500 nM IRS1 peptide, 75 μM DiFMUP substrate; read-out: SHP2wt-IC50. The class given is biochemical. The essentials: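 SHP-2 (Met1-Leu525), 0.5 nM, activated with 500 nM IRS1 bis-phosphopeptide, preincubated 30 min with compounds in HEPES pH 7.2 buffer with 5 mM DTT. 75 μM DiFMUP added for 30 min at room temperature, stopped with bpV; fluorescence read. IC50 from four-parameter logistic fit of % inhibition.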

In assay [2] the test system is ERK phosphorylation in KYSE-520 cells. Briefly: Phospho-ERK cellular assay. The conditions noted are these: Homo sapiens, KYSE-520, 2 h, KYSE-520 cells, 2 h at 37° C., phospho-ERK1/2 (Thr202/Tyr204) TR-FRET; read-out: PERK IC50. It is filed as cell-based. The essentials: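 TR-FRET read-out of ERK1/2 Thr202/Tyr204 phosphorylation was taken after overnight antibody incubation at room temperature. Before that, KYSE-520 cells were treated 2 h at 37 °C with compound dilutions and lysed 30 min. Percent inhibition relative to vehicle and cell-free wells was fitted four-parametrically to give IC50.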

Each structure is given as a SMILES string. Some results are limits rather than exact numbers.

Sequence of SHP-2 enzyme (Met1-Leu525) (Q06124 1-525): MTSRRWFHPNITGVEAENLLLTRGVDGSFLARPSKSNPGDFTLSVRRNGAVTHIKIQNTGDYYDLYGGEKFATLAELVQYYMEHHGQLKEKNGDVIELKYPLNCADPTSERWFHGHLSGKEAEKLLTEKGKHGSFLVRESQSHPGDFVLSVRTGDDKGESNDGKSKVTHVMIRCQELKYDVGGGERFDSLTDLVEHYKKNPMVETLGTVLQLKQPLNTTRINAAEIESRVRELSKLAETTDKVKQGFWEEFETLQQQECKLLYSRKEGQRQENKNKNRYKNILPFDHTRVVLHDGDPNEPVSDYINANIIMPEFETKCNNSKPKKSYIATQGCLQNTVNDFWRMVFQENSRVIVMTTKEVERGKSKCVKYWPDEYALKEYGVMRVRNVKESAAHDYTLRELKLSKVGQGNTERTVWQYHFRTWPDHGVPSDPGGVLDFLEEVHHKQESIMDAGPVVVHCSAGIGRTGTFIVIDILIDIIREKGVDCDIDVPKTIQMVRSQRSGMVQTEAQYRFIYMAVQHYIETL

Broadly, the IC50 is the midpoint of a concentration-inhibition curve. With `NC[C@]1(c2ccccc2F)[C@@H]2CCN(c3cnc4c(-c5ccc(C(N)=O)c(Cl)c5Cl)n[nH]c4n3)C[C@@H]21` [Example 241, 4-(6-((1S,6R,7R)-7-(aminomethyl)-7-(2-fluorophenyl)-3-azabicyclo[4.1.0]heptan-3-yl)-1H-pyrazolo[3,4-b]pyrazin-3-yl)-2,3-dichlorobenzamide], the IC50 in assay [1] was below 500 nM; in assay [2], below 1000 nM.
The matching figures for `NC[C@]1(c2ccccc2F)[C@@H]2CCN(c3cnc4c(-c5cccc6ncccc56)n[nH]c4n3)C[C@@H]21` [Example 242, ((1S,6R,7R)-7-(2-fluorophenyl)-3-(3-(quinolin-5-yl)-1H-pyrazolo[3,4-b]pyrazin-6-yl)-3-azabicyclo[4.1.0]heptan-7-yl)methanamine]: below 500 nM and below 1000 nM.
As to `NC[C@]1(c2ccccc2F)[C@@H]2CCN(c3cnc4c(-c5ccc6n[nH]cc6c5Cl)n[nH]c4n3)C[C@@H]21` [Example 243, ((1S,6R,7R)-3-(3-(4-chloro-2H-indazol-5-yl)-1H-pyrazolo[3,4-b]pyrazin-6-yl)-7-(2-fluorophenyl)-3-azabicyclo[4.1.0]heptan-7-yl)methanamine], the IC50 is below 500 nM in assay [1] and below 1000 nM in assay [2].
Take `CN1Cc2cc(-c3n[nH]c4nc(N5CC[C@@H]6[C@H](C5)[C@@]6(CN)c5ccccc5F)cnc34)ccc2C1=O` [Example 244, 5-(6-((1S,6R,7R)-7-(aminomethyl)-7-(2-fluorophenyl)-3-azabicyclo[4.1.0]heptan-3-yl)-1H-pyrazolo[3,4-b]pyrazin-3-yl)-2-methylisoindolin-1-one]: the IC50 in assay [1] was below 500 nM; in assay [2] it was below 1000 nM.
For `N#Cc1ccc(-c2n[nH]c3nc(N4CC[C@@H]5[C@H](C4)[C@@]5(CN)c4ccccc4F)cnc23)c(Cl)c1` [Example 245, 4-(6-((1S,6R,7R)-7-(aminomethyl)-7-(2-fluorophenyl)-3-azabicyclo[4.1.0]heptan-3-yl)-1H-pyrazolo[3,4-b]pyrazin-3-yl)-3-chlorobenzonitrile], the IC50 was below 500 nM in assay [1] and below 1000 nM in assay [2].
For the molecule `Cc1cc(-c2n[nH]c3nc(N4CC[C@@H]5[C@H](C4)[C@@]5(CN)c4ccccc4F)cnc23)ccc1C(N)=O` [Example 246, 4-(6-((1S,6R,7R)-7-(aminomethyl)-7-(2-fluorophenyl)-3-azabicyclo[4.1.0]heptan-3-yl)-1H-pyrazolo[3,4-b]pyrazin-3-yl)-2-methylbenzamide], the IC50 is below 500 nM in assay [1] and below 1000 nM in assay [2].
For `NC[C@]1(c2ccccc2F)[C@@H]2CCN(c3cnc4c(-c5ccc6cnccc6c5)n[nH]c4n3)C[C@@H]21` [Example 247, ((1S,6R,7R)-7-(2-fluorophenyl)-3-(3-(isoquinolin-6-yl)-1H-pyrazolo[3,4-b]pyrazin-6-yl)-3-azabicyclo[4.1.0]heptan-7-yl)methanamine] the same measures were below 500 nM and below 1000 nM.
The matching figures for `NC[C@]1(c2ccccc2F)[C@@H]2CCN(c3cnc4c(-c5ccc6ccncc6c5)n[nH]c4n3)C[C@@H]21` [Example 248, ((1S,6R,7R)-7-(2-fluorophenyl)-3-(3-(isoquinolin-7-yl)-1H-pyrazolo[3,4-b]pyrazin-6-yl)-3-azabicyclo[4.1.0]heptan-7-yl)methanamine]: below 500 nM and below 1000 nM.
`NC[C@]1(c2ccccc2F)[C@@H]2CCN(c3cnc4c(-c5ccc6c(c5)S(=O)(=O)NC6=O)n[nH]c4n3)C[C@@H]21` [Example 249, 6-(6-((1S,6R,7R)-7-(aminomethyl)-7-(2-fluorophenyl)-3-azabicyclo[4.1.0]heptan-3-yl)-1H-pyrazolo[3,4-b]pyrazin-3-yl)benzo[d]isothiazol-3(2H)-one 1,1-dioxide]: the half-maximal inhibitory concentration (IC50) is below 500 nM in assay [1] and above 5000 nM in assay [2].
With `Cc1cc(C(N)=O)ccc1-c1n[nH]c2nc(N3CC[C@@H]4[C@H](C3)[C@@]4(CN)c3ccccc3F)cnc12` [Example 250, 4-(6-((1S,6R,7R)-7-(aminomethyl)-7-(2-fluorophenyl)-3-azabicyclo[4.1.0]heptan-3-yl)-1H-pyrazolo[3,4-b]pyrazin-3-yl)-3-methylbenzamide], the IC50 was below 500 nM in assay [1] and below 1000 nM in assay [2].
As for `NC[C@]1(c2ccccc2F)[C@@H]2CCN(c3cnc4c(-c5ccc6c(c5)C(=O)NCC6)n[nH]c4n3)C[C@@H]21` [Example 251, 7-(6-((1S,6R,7R)-7-(aminomethyl)-7-(2-fluorophenyl)-3-azabicyclo[4.1.0]heptan-3-yl)-1H-pyrazolo[3,4-b]pyrazin-3-yl)-3,4-dihydroisoquinolin-1(2H)-one], the IC50 was below 500 nM in assay [1] and below 1000 nM in assay [2].
`NC[C@]1(c2ccccc2F)[C@@H]2CCN(c3cnc4c(-c5ccc6cccnc6c5)n[nH]c4n3)C[C@@H]21` [Example 252, ((1S,6R,7R)-7-(2-fluorophenyl)-3-(3-(quinolin-7-yl)-1H-pyrazolo[3,4-b]pyrazin-6-yl)-3-azabicyclo[4.1.0]heptan-7-yl)methanamine]: the results for the IC50 in assay [1] and in assay [2] were below 500 nM and below 1000 nM, respectively.
Consider `NC[C@]1(c2ccccc2F)[C@@H]2CCN(c3cnc4c(-c5cc(Cl)c(C(N)=O)cc5F)n[nH]c4n3)C[C@@H]21` [Example 253, 4-(6-((1S,6R,7R)-7-(aminomethyl)-7-(2-fluorophenyl)-3-azabicyclo[4.1.0]heptan-3-yl)-1H-pyrazolo[3,4-b]pyrazin-3-yl)-2-chloro-5-fluorobenzamide], for which the IC50 in assay [1] was below 500 nM; in assay [2], below 1000 nM.
For `NC[C@]1(c2ccccc2F)[C@@H]2CCN(c3cnc4c(-c5ccc6cn[nH]c(=O)c6c5)n[nH]c4n3)C[C@@H]21` [Example 254, 7-(6-((1S,6R,7R)-7-(aminomethyl)-7-(2-fluorophenyl)-3-azabicyclo[4.1.0]heptan-3-yl)-1H-pyrazolo[3,4-b]pyrazin-3-yl)phthalazin-1(2H)-one], the half-maximal inhibitory concentration (IC50) in assay [1] was below 500 nM; in assay [2] it was below 1000 nM.
Regarding `NC[C@]1(c2ccccc2F)[C@@H]2CCN(c3cnc4c(-c5ccc6cc(Cl)cnc6c5)n[nH]c4n3)C[C@@H]21` [Example 255, ((1S,6R,7R)-3-(3-(3-chloroquinolin-7-yl)-1H-pyrazolo[3,4-b]pyrazin-6-yl)-7-(2-fluorophenyl)-3-azabicyclo[4.1.0]heptan-7-yl)methanamine], the half-inhibitory concentration (IC50) in assay [1] is below 500 nM; in assay [2], above 5000 nM.
Turning to `NC[C@]1(c2ccccc2F)[C@@H]2CCN(c3cnc4c(-c5ccc(-c6cn[nH]c6)cc5Cl)n[nH]c4n3)C[C@@H]21` [Example 256, ((1S,6R,7R)-3-(3-(2-chloro-4-(1H-pyrazol-4-yl)phenyl)-1H-pyrazolo[3,4-b]pyrazin-6-yl)-7-(2-fluorophenyl)-3-azabicyclo[4.1.0]heptan-7-yl)methanamine], the results for the IC50 in assay [1] and in assay [2] were below 500 nM and below 1000 nM, respectively.
For `NC[C@]1(c2ccccc2F)[C@@H]2CCN(c3cnc4c(-c5ccc(C(=O)O)c6ccccc56)n[nH]c4n3)C[C@@H]21` [Example 257, 4-(6-((1S,6R,7R)-7-(aminomethyl)-7-(2-fluorophenyl)-3-azabicyclo[4.1.0]heptan-3-yl)-1H-pyrazolo[3,4-b]pyrazin-3-yl)-1-naphthoic acid] the same measures were below 500 nM and above 5000 nM.
In the case of `NC[C@]1(c2ccccc2F)[C@@H]2CCN(c3cnc4c(-c5ccc6nccc(N)c6c5)n[nH]c4n3)C[C@@H]21` [Example 258, 6-(6-((1S,6R,7R)-7-(aminomethyl)-7-(2-fluorophenyl)-3-azabicyclo[4.1.0]heptan-3-yl)-1H-pyrazolo[3,4-b]pyrazin-3-yl)quinolin-4-amine], the half-inhibitory concentration (IC50) in assay [1] is below 500 nM; in assay [2], above 5000 nM.
The matching figures for `Cc1c(-c2n[nH]c3nc(N4CC[C@@H]5[C@H](C4)[C@@]5(CN)c4ccccc4F)cnc23)ccc2[nH]c(=O)[nH]c12` [Example 259, 5-(6-((1S,6R,7R)-7-(aminomethyl)-7-(2-fluorophenyl)-3-azabicyclo[4.1.0]heptan-3-yl)-1H-pyrazolo[3,4-b]pyrazin-3-yl)-4-methyl-1,3-dihydro-2H-benzo[d]imidazol-2-one]: below 500 nM and below 1000 nM.
Turning to `NC[C@]1(c2ccccc2F)[C@@H]2CCN(c3cnc4c(-c5ccc6nccc(=O)n6c5)n[nH]c4n3)C[C@@H]21` [Example 260, 7-(6-((1S,6R,7R)-7-(aminomethyl)-7-(2-fluorophenyl)-3-azabicyclo[4.1.0]heptan-3-yl)-1H-pyrazolo[3,4-b]pyrazin-3-yl)-4H-pyrido[1,2-a]pyrimidin-4-one], the IC50 in assay [1] was below 500 nM; in assay [2], above 5000 nM.
Take `Cc1c(-c2n[nH]c3nc(N4CC[C@@H]5[C@H](C4)[C@@]5(CN)c4ccccc4F)cnc23)ccc2c1n(C)c(=O)n2C` [Example 261, 5-(6-((1S,6R,7R)-7-(aminomethyl)-7-(2-fluorophenyl)-3-azabicyclo[4.1.0]heptan-3-yl)-1H-pyrazolo[3,4-b]pyrazin-3-yl)-1,3,4-trimethyl-1,3-dihydro-2H-benzo[d]imidazol-2-one]: the 50% inhibitory concentration (IC50) was below 500 nM in assay [1] and below 1000 nM in assay [2].
As to `COc1cc2ccc(-c3n[nH]c4nc(N5CC[C@@H]6[C@H](C5)[C@@]6(CN)c5ccccc5F)cnc34)cc2nn1` [Example 262, ((1S,6R,7R)-7-(2-fluorophenyl)-3-(3-(3-methoxycinnolin-7-yl)-1H-pyrazolo[3,4-b]pyrazin-6-yl)-3-azabicyclo[4.1.0]heptan-7-yl)methanamine], the IC50 was below 500 nM in assay [1] and below 1000 nM in assay [2].

(Values after patent US20240109900A1, “AZABICYCLIC SHP2 INHIBITORS” (IRBM S.P.A., priority 2021, published 2024).)
